“Also recorded” adds a separate entry of the source.
Experiments:
[1] = test system: cultured rat retinal ganglion cells; test: Glutamate-induced rat retinal ganglion cell death; type: cell-based; settings: 10 nM for 30 minutes, then 100 μM glutamate; viable cells counted after 3 days; FIG. 1
From the text: Retinal ganglion cells were selected as they represent the retinal cell that degenerates in glaucoma. MK-801 was selected as a reference NMDA antagonist.
Isolation of rat retinal ganglion cells and assessment of viability in the absence and presence of glutamate was described in Pang, et al., “Protection by Eliprodil Against Excitotoxicity in Cultured Rat Retinal Ganglion Cells”, Investigative Ophthalmology & Visual Science, Vol. 40(6), pp. 1170-1176, May, 1999. Briefly, isolated cultured rat retinal ganglion cells were treated with racemic (R/S) eliprodil (10 nM), R-eliprodil (10 nM), or S-eliprodil (10 nM) for thirty (30) minutes followed by the addition of 100 μM glutamate. Survival was determined by counting viable cells after an incubation period of three (3) days. Survival with vehicle alone defines 100%. […] S-eliprodil was ineffective.

hippocampal slices = test: Recovery of synaptic transmission after hypoxia in hippocampal slices in vitro; settings: for Recovery of excitatory post synaptic potentials following hypoxia (efficacy): comparable dose, 15 minute hypoxia, recovery assessed 60 minutes after reoxygenation
Experimental: Dose-Response Relations Comparing the Efficacy of Racemic (R/S)-Eliprodil (Open Circles), R-Eliprodil (Closed Circles) and Memantine (Closed Diamonds) for their Ability to Improve Recovery of Synaptic Transmission Following a 15 Minute Period of Hypoxia in Hippocampal Slices in vitro (FIG. 2). […] Briefly, hippocampal slices were prepared acutely the same day as the experiment, and each compound was bath applied 30 minutes prior to delivery of the 15 minute hypoxic insult. Recovery of evoked […] expressed as percent of the initial, pre-hypoxia epsp maximum slope, with this percent recovery assessed 60 minutes after reoxygenation.

[2] = test system: NMDA-induced firing rate of the lateral vestibular nucleus; test: NMDA-induced firing rate of the lateral vestibular nucleus in vivo
piglet Purkinje fibre = settings: for Concentration with statistically significant prolongation of APD90: pig
Experimental: Eliprodil and its two enantiomers induced concentration-dependent prolongation of the duration of the action potential of the piglet Purkinje fibre, particularly at the 0.25 Hz frequency. Based on action potential duration at 90% repolarization (APD90), statistically significant prolongation was evident at R(−) eliprodil concentrations of 100 nM and higher, but at S(+) eliprodil concentrations of 30 nM and higher. With high concentrations, APD90 decreased with both compounds.

[3] = cat, in vivo
Experimental: Eliprodil and its enantiomers were evaluated for their potential for prolonging QTc by determining their dose-related effects on cardiac electrical activity. Two different experimental models were utilized for these studies: (1) Action potential duration in piglet Purkinje fibers from the heart and (2) Electrocardiographic parameters in pentobarbital anesthetized cats.
Eliprodil and its two enantiomers were also evaluated for hemodynamic and electrocardiographic parameters in pentobarbital-anesthetized cats. […] Compounds were administered at increasing doses from 0.01 to 3 mg/kg as a five-minute intravenous infusion every 20 minutes.

NMDA receptor = NMDA receptor (Homo sapiens, UniProt Q05586+Q13224); test: biochemical
5-HT uptake = 5-HT uptake (Homo sapiens, UniProt P31645); test: Binding studies; settings: 5-HT uptake binding site
From the text: (§1) The role of these pharmacological activities in the neuroprotective efficacy has not been established for this drug.

5-HT1A = biological target: T1, 5-HT1A (Homo sapiens, UniProt P08908); test: Binding studies; settings: 5-HT1A binding site
T1 sequence (P08908 1-422): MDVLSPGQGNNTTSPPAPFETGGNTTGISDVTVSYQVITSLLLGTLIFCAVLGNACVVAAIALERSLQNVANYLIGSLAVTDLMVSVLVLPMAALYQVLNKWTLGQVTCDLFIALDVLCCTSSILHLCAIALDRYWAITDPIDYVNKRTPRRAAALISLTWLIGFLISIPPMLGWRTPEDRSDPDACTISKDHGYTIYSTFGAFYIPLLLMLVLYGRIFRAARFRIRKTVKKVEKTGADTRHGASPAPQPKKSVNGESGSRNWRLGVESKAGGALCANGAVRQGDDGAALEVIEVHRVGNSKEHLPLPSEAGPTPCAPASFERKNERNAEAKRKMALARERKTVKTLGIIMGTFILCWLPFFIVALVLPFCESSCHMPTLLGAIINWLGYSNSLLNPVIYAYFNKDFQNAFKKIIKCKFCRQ
From the text: as §1

5-HT2A = 5-HT2A (Homo sapiens, UniProt P28223); test: Binding studies; settings: 5-HT2A binding site
From the text: as §1

5-HT7 = 5-HT7 (Homo sapiens, UniProt P34969); test: Binding studies; settings: 5-HT7 binding site
From the text: as §1

histamine H1 = histamine H1 (Homo sapiens, UniProt P35367); test: Binding studies; settings: histamine H1 binding site
From the text: as §1

histamine H2 = histamine H2 (Homo sapiens, UniProt P25021); test: Binding studies; settings: histamine H2 binding site
From the text: as §1

α1-adrenergic = test: Binding studies; settings: α1-adrenergic binding site
From the text: as §1

β3-adrenergic = β3-adrenergic (Homo sapiens, UniProt P13945); test: Binding studies; settings: β3-adrenergic binding site
From the text: as §1

[4] = test system: voltage operated calcium channels of the L, N and P type; test: Antagonism at voltage operated calcium channels
From the text: as §1

sodium channels = test: Antagonism at sodium channels
From the text: as §1

[5] = following some doses in humans; cited from earlier work

NMDA receptor, sequence (Q13224 27-1484, other chains not shown): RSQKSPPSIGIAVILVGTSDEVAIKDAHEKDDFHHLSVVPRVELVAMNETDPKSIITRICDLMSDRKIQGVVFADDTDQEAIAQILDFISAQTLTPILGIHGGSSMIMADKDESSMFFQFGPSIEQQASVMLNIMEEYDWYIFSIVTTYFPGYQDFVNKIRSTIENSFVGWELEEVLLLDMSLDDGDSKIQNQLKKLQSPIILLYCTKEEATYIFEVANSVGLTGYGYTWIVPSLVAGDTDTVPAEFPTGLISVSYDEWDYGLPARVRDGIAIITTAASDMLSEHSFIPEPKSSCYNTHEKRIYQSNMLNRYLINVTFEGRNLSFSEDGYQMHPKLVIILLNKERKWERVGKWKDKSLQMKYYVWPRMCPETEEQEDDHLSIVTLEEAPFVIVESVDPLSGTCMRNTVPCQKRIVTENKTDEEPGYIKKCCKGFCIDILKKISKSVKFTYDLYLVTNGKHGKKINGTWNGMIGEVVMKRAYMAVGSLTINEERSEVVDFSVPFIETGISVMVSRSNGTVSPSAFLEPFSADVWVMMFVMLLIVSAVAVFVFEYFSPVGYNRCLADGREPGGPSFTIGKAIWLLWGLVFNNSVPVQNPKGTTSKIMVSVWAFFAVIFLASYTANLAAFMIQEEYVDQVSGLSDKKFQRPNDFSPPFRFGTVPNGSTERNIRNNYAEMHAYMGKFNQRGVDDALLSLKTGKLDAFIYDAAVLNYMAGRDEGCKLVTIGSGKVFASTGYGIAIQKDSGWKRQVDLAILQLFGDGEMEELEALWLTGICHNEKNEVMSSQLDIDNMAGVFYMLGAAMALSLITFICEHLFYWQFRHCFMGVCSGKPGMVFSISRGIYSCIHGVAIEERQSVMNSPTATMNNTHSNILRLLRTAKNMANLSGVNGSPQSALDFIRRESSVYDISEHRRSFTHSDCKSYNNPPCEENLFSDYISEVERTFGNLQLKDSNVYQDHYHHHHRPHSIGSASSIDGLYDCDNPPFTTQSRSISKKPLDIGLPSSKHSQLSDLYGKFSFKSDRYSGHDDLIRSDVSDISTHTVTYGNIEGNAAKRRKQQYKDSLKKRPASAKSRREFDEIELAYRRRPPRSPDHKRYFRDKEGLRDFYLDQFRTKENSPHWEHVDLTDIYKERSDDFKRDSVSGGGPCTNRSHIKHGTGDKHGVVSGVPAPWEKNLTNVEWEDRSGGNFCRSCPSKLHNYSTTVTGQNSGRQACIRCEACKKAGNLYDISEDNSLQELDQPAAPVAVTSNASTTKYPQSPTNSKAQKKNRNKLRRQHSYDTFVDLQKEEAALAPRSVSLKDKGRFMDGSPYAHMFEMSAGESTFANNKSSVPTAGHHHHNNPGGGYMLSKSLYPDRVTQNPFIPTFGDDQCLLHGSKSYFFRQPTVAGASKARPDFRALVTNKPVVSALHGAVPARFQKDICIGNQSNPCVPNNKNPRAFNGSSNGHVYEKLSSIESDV
β3-adrenergic, sequence (P13945 whole entry): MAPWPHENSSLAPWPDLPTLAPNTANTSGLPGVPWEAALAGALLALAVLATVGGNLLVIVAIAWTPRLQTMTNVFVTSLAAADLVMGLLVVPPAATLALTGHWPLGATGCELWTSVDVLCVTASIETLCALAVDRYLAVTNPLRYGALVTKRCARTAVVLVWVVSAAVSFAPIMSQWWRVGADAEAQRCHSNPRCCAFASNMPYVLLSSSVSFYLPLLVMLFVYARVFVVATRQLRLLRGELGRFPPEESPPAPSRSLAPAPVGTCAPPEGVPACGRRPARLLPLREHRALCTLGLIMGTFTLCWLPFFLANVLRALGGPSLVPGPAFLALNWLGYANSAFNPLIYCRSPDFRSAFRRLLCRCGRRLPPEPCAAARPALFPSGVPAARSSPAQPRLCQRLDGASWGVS
histamine H1, sequence (P35367 whole entry): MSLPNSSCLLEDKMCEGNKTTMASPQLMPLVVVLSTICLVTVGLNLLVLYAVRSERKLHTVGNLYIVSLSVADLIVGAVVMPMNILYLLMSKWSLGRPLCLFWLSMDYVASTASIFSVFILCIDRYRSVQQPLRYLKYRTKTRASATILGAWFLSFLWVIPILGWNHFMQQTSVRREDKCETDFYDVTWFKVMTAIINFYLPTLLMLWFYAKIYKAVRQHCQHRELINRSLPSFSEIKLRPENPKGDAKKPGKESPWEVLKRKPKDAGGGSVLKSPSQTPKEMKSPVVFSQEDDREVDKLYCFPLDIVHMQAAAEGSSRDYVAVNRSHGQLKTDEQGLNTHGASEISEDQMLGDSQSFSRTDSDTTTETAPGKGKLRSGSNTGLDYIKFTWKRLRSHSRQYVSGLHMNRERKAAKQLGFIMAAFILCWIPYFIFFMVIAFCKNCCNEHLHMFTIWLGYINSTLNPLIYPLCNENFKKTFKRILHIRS
5-HT7, sequence (P34969 whole entry, species assumed): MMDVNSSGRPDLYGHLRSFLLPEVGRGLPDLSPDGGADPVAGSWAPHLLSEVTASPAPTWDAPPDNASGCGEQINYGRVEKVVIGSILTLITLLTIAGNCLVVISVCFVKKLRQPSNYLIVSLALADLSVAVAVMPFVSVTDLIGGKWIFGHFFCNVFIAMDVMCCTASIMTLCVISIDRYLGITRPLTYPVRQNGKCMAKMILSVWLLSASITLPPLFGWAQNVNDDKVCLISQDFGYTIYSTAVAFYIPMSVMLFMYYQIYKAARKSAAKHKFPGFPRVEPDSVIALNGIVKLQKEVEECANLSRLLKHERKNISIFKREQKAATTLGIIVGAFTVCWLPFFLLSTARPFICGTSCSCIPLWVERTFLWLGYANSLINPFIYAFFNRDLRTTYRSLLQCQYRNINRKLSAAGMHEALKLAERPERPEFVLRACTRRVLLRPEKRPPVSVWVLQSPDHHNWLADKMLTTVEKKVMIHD
5-HT uptake, sequence (P31645 whole entry): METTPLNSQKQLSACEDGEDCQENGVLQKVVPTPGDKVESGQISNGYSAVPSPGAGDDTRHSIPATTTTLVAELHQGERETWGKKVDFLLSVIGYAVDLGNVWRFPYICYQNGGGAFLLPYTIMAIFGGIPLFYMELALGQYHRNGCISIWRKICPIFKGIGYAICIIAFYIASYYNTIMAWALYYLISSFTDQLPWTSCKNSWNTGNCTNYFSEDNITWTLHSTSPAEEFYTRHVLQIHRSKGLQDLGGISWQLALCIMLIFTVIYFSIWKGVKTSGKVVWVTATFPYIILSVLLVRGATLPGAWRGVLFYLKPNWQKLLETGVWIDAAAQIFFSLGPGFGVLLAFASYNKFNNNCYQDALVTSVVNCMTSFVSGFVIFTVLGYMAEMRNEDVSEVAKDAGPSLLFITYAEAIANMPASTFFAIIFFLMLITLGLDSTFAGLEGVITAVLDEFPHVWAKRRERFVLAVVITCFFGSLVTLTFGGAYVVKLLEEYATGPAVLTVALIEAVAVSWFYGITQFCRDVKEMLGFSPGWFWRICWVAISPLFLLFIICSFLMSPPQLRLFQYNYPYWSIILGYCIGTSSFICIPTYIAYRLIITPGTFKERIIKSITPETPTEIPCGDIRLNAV
histamine H2, sequence (P25021 whole entry): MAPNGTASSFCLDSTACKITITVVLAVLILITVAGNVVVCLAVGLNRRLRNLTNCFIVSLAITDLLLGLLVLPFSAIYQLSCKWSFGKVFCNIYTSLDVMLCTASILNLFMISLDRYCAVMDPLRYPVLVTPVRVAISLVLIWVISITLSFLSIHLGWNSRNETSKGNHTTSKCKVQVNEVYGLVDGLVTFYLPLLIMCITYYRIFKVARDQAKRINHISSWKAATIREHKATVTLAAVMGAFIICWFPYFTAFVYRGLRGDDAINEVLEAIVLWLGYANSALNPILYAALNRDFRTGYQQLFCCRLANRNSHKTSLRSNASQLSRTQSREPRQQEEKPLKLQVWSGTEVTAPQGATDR
5-HT2A, sequence (P28223 whole entry, species assumed): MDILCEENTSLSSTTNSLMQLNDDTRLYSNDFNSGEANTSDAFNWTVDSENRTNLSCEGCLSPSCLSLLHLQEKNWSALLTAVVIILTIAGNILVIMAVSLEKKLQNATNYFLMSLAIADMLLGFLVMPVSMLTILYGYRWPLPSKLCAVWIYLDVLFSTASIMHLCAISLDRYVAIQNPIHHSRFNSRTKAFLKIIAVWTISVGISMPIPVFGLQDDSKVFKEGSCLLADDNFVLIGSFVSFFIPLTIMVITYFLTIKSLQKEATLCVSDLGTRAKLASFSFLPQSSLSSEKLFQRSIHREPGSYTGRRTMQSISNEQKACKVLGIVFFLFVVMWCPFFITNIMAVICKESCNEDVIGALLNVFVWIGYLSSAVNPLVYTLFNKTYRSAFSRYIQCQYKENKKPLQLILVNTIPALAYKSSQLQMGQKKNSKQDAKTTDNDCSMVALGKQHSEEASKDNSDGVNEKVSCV

O[C@H](CN1CCC(Cc2ccc(F)cc2)CC1)c1ccc(Cl)cc1 [S-eliprodil]
Neuroprotective effect on glutamate-induced retinal ganglion cell death (survival) [1]: ineffective | Recovery of excitatory post synaptic potentials following hypoxia (efficacy) (hippocampal slices): less effective | Inhibition of NMDA-induced firing rate of the lateral vestibular nucleus [2]: almost inactive at the highest dose tested | Concentration with statistically significant prolongation of APD90 (piglet Purkinje fibre): ≥ 30 nM | Threshold Dose, Heart Rate Decrease [3]: 0.1 mg/kg | Threshold Dose, Mean Blood Pressure Decrease [3]: 1.0 mg/kg | Threshold Dose, QTc Prolongation [3]: 0.01 mg/kg | Ki (NMDA receptor): 10 µM

O[C@@H](CN1CCC(Cc2ccc(F)cc2)CC1)c1ccc(Cl)cc1 [R-eliprodil, R-α-(4-chlorophenyl)-4-(4-fluorophenylmethyl)-1-peperidineethanol]
Neuroprotective effect on glutamate-induced retinal ganglion cell death (survival) [1]: marked neuroprotective activity; also recorded: as efficacious as a protectant as racemic eliprodil | Recovery of excitatory post synaptic potentials following hypoxia (efficacy) (hippocampal slices): substantial recovery; also recorded: more efficacious than either racemic or S-eliprodil | Potency (EC50) for recovery of synaptic transmission, compared with racemic-eliprodil or memantine (hippocampal slices; p<0.05, Student's t-test, FIG. 2): statistically significantly more potent | Inhibition of NMDA-induced firing rate of the lateral vestibular nucleus [2]: strongly inhibit | Maximum effect on APD90 (piglet Purkinje fibre): less than is that seen with S(+) eliprodil | Concentration with statistically significant prolongation of APD90 (piglet Purkinje fibre): ≥ 100 nM | Threshold Dose, Heart Rate Decrease [3]: 0.3 mg/kg | Threshold Dose, Mean Blood Pressure Decrease [3]: 1.0 mg/kg | Threshold Dose, QTc Prolongation [3]: 0.1 mg/kg | Plasma level ([3]; iv, 0.1 mg/kg): 34.9 ± 2.8 ng/mL | Ki (NMDA receptor): 0.2 µM

OC(CN1CCC(Cc2ccc(F)cc2)CC1)c1ccc(Cl)cc1 (racemic) [Eliprodil]
Neuroprotective effect on glutamate-induced retinal ganglion cell death (survival) [1]: marked neuroprotective activity | Recovery of excitatory post synaptic potentials following hypoxia (efficacy) (hippocampal slices): less effective | Inhibition of NMDA-induced firing rate of the lateral vestibular nucleus [2]: strongly inhibit | Effect on APD90 at low concentrations (piglet Purkinje fibre): intermediate between the two enantiomers | Maximum effect on APD90 (piglet Purkinje fibre): equal to that of S(+) eliprodil | Threshold Dose, Heart Rate Decrease [3]: 0.1 mg/kg | Threshold Dose, Mean Blood Pressure Decrease [3]: 1.0 mg/kg | Threshold Dose, QTc Prolongation [3]: 0.03 mg/kg | Affinity (5-HT uptake): sub-micromolar | Affinity (5-HT1A): sub-micromolar | Affinity (5-HT2A): sub-micromolar | Affinity (5-HT7): sub-micromolar | Affinity (histamine H1): sub-micromolar | Affinity (histamine H2): sub-micromolar | Affinity (α1-adrenergic): sub-micromolar | Affinity (β3-adrenergic): sub-micromolar | Antagonism at voltage operated calcium channels [4]: shows antagonism | Antagonism at sodium channels (sodium channels): shows antagonism | QTc prolongation [5]: asymptomatic QTc prolongation
